The record followed here is US20090221581A1, “Methods of treating pain” (priority 2005, published 2009).

Common to all, as to format: biochemical
One assay deals with T1, CDK2/CycA (Homo sapiens, UniProt P24941).
T1 construct: host or cells: Sf9 insect cells, baculovirus
The assay can be described thus: In vitro kinase inhibition assay, CDK2/CycA. The protocol: (§1) In vitro kinase inhibition assays may be performed according to the following protocol:
(§2) Compounds are used as 1×10^−02 M stock solutions in 100% DMSO, 100 μl each in column 2 of three 96-well V-shaped microtiter plates (in the following, said plates are referred to as “master plates”).
(§3) Subsequently, the 1×10^−02 M stock solutions in column 2 of the master plates are subjected to a serial, semi-logarithmic dilution using 100% DMSO as a solvent, resulting in 10 different concentrations, the dilution endpoint being 3×10^−07 M/100% DMSO in column 12. Column 1 and 7 are filled with 100% DMSO as controls. […]
(§4) For the determination of inhibitory profiles, the following protein kinases were used: CDK2/CycA, CDK4/CycD1, CDK6/CycD1 and CDK9/CycT. […] The purity of each kinase is determined by SDS-PAGE/silver staining and the identity of each kinase is verified by western blot analysis with kinase specific antibodies or by mass spectroscopy. […]
(§5) Reaction mixtures are incubated at 30° C. for 80 minutes. […] Incorporation of ^33P is determined with a microplate scintillation counter (Microbeta, Wallac). […]
(§6) The median value of the counts in column 1 (n=8) of each assay plate is defined as “low control”. This value reflects unspecific binding of radioactivity to the plate in the absence of a protein kinase but in the presence of the substrate. […]

In another assay the target is T2, CDK6/CycD1 (Homo sapiens, UniProt Q00534).
T2 construct: host or cells: Sf9 insect cells, baculovirus
T2 sequence (Q00534 whole entry): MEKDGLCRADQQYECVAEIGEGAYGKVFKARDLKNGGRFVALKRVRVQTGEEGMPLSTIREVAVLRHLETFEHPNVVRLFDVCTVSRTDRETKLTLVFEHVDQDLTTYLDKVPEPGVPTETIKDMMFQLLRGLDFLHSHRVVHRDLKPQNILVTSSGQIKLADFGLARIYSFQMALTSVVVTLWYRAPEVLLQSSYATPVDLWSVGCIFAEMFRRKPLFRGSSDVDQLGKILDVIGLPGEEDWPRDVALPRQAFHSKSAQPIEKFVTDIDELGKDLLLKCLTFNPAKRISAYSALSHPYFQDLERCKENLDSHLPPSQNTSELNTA
T2 sequence (P24385 whole entry partner): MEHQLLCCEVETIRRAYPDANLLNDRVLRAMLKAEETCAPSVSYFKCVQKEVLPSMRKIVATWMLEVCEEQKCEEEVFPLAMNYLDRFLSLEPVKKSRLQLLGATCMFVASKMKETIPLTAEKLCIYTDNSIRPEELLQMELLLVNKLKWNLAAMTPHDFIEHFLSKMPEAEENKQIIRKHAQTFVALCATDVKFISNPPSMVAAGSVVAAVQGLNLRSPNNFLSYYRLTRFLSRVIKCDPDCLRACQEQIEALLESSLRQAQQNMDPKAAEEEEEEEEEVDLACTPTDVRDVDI
The assay can be described thus: In vitro kinase inhibition assay, CDK6/CycD1. As for the experimental part: as §1, §2, §3, §4, §5, §6

In a further assay the target is T3, CDK9/CycT (Homo sapiens, UniProt P50750).
T3 construct: host or cells: Sf9 insect cells, baculovirus
T3 sequence (P50750 whole entry): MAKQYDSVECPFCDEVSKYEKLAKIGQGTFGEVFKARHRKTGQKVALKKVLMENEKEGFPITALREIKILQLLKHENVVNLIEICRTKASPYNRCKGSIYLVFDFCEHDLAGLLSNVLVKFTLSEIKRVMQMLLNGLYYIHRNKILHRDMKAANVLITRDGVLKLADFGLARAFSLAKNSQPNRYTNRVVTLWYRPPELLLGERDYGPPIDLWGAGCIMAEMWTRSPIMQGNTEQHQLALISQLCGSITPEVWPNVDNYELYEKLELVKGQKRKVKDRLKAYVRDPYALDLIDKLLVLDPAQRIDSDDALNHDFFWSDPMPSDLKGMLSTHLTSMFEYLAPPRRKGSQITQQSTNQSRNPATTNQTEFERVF
T3 sequence (O60563 whole entry partner): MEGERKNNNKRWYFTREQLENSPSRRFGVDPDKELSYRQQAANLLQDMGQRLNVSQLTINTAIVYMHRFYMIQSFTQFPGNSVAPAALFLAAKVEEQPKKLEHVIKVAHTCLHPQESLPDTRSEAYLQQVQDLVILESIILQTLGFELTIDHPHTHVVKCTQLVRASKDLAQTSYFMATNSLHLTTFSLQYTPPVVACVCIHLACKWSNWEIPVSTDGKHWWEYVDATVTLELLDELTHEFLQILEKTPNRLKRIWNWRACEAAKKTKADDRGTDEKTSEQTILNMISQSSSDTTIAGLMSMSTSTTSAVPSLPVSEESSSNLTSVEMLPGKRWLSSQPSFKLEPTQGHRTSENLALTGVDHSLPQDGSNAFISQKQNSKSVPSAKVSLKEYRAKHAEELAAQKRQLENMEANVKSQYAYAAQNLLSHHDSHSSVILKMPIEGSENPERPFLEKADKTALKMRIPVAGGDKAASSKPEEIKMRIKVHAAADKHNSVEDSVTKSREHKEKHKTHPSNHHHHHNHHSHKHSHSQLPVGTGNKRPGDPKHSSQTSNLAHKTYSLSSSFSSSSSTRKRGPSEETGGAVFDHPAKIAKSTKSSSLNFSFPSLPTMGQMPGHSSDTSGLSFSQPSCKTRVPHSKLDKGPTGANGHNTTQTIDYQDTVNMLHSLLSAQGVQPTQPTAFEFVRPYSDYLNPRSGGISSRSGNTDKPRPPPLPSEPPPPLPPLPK
The experiment in a line: In vitro kinase inhibition assay, CDK9/CycT. As for the experimental part: as §1, §2, §3, §4, §5, §6

A further assay deals with T4, CDK5/p35NCK (Homo sapiens, UniProt Q00535).
T4 construct: made in house; host or cells: Sf9 insect cells, baculovirus
T4 sequence (Q00535 whole entry): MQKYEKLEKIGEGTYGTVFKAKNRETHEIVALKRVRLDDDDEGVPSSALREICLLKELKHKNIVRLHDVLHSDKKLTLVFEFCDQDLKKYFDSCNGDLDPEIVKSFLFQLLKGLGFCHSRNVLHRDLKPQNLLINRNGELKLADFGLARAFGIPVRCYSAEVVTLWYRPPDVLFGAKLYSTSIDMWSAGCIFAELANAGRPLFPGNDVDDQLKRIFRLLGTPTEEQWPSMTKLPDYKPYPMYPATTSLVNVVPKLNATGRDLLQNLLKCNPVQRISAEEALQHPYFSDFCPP
T4 sequence (Q15078 whole entry partner): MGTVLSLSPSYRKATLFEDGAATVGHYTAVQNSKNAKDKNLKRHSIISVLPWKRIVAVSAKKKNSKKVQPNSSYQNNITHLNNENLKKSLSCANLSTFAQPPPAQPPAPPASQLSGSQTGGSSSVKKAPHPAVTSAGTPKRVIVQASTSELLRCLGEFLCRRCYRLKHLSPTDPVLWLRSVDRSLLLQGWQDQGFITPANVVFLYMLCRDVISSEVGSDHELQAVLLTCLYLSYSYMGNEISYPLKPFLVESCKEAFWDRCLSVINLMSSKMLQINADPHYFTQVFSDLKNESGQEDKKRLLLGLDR
The assay can be described thus: In vitro kinase inhibition assay, CDK5/p35NCK.

Another assay deals with T5, CDK4/CycD1 (Homo sapiens, UniProt P11802).
T5 construct: host or cells: Sf9 insect cells, baculovirus
T5 sequence (P11802 whole entry): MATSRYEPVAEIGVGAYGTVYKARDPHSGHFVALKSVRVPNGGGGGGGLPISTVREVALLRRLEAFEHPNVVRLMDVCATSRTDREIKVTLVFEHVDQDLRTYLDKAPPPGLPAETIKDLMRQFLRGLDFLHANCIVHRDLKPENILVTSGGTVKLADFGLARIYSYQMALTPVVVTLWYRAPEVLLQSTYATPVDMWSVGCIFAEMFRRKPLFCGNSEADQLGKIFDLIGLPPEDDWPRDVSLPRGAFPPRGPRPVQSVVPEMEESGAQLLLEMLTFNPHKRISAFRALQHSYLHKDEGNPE
T5 sequence (P24385 whole entry partner): as the sequence (P24385 whole entry partner) above
The experiment in a line: In vitro kinase inhibition assay, CDK4/CycD1. As for the experimental part:
as §1, §2, §3, §4, §5, §6

Take `COc1ccccc1-c1cc(Nc2cccc(S(N)(=O)=O)c2)ncn1` [Compound A]: the IC50 against CDK2/CycA is 10100 nM; at CDK6/CycD1, 1910 nM; against CDK9/CycT (CDK9/CycT) it was 630 nM; at CDK5/p35NCK it was 58100 nM; at CDK4/CycD1, 2790 nM. Also, at CDK9/CycT (from IC50 values of Table 1), the “specificity for CDK9 over other CDKs” value was “high specificity for CDK9”.

A word on the IC50: it is the midpoint of a concentration-inhibition curve.
